Source: ChEMBL document CHEMBL1201862, “PubChem BioAssay data set” (2004)
Activity calls are given as the source filed them.

How the values were obtained:
[1] = target: Cystic fibrosis transmembrane conductance regulator/Golgi-associated PDZ and coiled-coil motif-containing protein (Homo sapiens, UniProt P13569+Q9HD26); experiment: CAL PDZ peptide-binding inhibitors, dose response, biochemical, fluorescence polarization, Cerulean-tagged CAL PDZ, cherry-picks (AID 504773)
Hexokinase HKDC1 [2] = target: T1, Hexokinase HKDC1 (Homo sapiens, UniProt Q2TB90); experiment: HKDC1 hexokinase inhibitors, dose response, biochemical, W721R variant (AID 504729); format: functional
T1 sequence (Q2TB90 whole entry): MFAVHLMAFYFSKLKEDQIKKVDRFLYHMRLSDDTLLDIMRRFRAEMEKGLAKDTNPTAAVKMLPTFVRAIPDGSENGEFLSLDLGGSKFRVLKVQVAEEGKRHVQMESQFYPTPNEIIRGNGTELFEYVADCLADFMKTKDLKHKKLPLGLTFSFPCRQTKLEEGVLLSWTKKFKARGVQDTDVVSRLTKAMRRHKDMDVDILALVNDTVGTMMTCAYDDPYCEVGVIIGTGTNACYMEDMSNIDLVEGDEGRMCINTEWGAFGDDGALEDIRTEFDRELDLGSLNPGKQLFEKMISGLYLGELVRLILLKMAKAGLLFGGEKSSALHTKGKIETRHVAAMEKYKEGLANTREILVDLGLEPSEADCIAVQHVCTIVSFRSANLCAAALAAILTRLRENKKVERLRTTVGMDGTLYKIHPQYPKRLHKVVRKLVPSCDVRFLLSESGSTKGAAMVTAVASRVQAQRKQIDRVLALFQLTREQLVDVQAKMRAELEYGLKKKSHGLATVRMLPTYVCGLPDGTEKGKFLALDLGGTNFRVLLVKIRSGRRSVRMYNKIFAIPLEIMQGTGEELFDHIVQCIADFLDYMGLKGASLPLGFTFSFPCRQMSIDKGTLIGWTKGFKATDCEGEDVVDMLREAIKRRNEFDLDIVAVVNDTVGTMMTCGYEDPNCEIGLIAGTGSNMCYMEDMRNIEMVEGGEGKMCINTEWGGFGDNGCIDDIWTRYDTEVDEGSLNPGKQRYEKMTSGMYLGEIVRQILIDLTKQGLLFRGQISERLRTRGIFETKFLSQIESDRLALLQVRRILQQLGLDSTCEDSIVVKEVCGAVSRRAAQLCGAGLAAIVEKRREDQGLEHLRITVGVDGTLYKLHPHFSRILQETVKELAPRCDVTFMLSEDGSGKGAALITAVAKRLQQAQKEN

[3] = target: T2, Replicative DNA helicase DnaB (Mycobacterium tuberculosis, UniProt P9WMR3); experiment: DnaB intein splicing inhibitors, dose response, biochemical, cell-free fluorescence (AID 449749); format: functional
T2 sequence (P9WMR3 whole entry): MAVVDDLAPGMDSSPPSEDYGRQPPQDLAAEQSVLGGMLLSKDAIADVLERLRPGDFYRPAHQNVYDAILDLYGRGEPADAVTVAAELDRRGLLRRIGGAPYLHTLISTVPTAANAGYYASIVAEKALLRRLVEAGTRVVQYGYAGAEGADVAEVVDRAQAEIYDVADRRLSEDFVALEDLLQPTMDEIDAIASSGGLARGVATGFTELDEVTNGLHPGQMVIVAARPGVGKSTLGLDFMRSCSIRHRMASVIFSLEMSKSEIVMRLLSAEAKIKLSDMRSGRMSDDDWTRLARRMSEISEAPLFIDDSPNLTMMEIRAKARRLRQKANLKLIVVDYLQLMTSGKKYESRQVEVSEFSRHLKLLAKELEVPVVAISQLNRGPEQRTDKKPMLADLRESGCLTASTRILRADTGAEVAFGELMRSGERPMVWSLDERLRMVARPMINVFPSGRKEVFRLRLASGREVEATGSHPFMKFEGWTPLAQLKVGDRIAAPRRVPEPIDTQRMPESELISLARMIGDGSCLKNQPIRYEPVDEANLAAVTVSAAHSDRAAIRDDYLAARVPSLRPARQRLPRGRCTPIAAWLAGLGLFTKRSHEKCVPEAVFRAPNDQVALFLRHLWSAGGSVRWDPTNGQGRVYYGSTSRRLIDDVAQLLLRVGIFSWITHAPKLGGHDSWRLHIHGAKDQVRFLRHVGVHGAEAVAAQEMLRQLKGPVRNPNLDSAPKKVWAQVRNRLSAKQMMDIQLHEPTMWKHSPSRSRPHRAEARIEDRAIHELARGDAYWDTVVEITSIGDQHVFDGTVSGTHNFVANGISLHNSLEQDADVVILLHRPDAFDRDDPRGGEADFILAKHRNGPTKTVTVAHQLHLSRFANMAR

Protein RecA = target: T3, Protein RecA (Mycobacterium tuberculosis, UniProt P9WHJ3); experiment: Fluorescence Cell-Free Homogeneous Dose Retest to Identify Inhibitors of RecA-Intein Splicing Activity. [Related pubchem assays (depositor defined):AID2097, AID2223, AID489010, AID492950]; format: functional
T3 sequence (P9WHJ3 whole entry): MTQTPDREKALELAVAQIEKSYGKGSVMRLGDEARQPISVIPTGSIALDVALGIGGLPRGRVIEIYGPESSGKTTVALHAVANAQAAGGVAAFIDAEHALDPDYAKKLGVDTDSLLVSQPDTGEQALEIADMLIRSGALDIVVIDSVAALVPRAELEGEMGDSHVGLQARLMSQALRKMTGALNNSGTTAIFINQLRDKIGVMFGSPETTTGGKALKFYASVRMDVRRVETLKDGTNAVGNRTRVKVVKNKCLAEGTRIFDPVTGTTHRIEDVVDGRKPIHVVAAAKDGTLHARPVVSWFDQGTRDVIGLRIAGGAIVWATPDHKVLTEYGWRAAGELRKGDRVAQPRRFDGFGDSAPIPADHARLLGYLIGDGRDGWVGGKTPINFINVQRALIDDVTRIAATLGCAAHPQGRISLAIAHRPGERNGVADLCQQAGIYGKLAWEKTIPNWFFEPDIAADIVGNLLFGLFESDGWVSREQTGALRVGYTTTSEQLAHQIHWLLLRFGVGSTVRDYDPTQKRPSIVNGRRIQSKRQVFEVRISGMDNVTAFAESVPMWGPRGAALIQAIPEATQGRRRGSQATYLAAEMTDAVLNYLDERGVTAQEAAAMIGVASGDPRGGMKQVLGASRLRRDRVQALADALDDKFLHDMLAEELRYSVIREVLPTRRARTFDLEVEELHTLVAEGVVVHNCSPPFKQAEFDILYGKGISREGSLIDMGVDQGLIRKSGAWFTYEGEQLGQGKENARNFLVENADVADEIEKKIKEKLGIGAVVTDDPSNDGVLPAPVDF

Hexokinase HKDC1 [4] = target: T1, Hexokinase HKDC1; experiment: SAR analysis of small molecule inhibitors of hexokinase domain containing I (HKDC1) - Set 3. [Related pubchem assays (depositor defined):AID493160, AID493190]; format: functional
Hexokinase HKDC1 [5] = target: T1, Hexokinase HKDC1; experiment: HKDC1 hexokinase inhibitors, SAR follow-up, biochemical, set 2 (AID 588355); format: functional
[6] = CAL PDZ domain peptide-binding inhibitors, dose response, biochemical, fluorescence polarization, untagged CAL PDZ, cherry-pick (AID 602267); format: functional
Caspase-6 = target: T4, Caspase-6 (Homo sapiens, UniProt P55212); experiment: human caspase-6 inhibitors, dose response, biochemical, VEID-R110 fluorescence, cherry-pick (AID 720632)
T4 sequence (P55212 whole entry): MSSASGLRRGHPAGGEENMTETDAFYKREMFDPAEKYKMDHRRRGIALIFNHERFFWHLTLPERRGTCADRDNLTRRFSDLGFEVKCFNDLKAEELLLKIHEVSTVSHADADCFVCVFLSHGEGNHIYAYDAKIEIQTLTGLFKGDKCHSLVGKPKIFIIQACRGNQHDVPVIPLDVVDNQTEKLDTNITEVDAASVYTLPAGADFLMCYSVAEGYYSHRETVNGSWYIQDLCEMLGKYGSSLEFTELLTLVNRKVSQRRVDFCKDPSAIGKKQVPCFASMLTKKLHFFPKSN

[7] = target: T5, Tyrosyl-DNA phosphodiesterase 2 (Homo sapiens, UniProt O95551); experiment: human TDP2 enzyme inhibitors, dose response, biochemical, epi absorbance, IC50 (AID 743297)
T5 sequence (O95551 whole entry): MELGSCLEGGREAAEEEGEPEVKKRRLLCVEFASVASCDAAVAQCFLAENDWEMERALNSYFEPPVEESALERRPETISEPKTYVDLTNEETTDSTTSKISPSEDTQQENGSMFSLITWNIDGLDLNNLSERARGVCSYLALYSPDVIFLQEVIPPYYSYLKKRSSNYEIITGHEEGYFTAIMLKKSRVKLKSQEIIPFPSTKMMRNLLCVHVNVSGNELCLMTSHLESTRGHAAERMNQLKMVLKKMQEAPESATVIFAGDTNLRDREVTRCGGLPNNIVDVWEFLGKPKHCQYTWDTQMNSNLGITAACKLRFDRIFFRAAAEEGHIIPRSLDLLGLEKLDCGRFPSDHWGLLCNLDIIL

[8] = target: Glycogen synthase kinase-3 beta (Homo sapiens, UniProt P49841); experiment: GSK3beta kinase inhibitors, dose response, biochemical, microfluidics, dry powder samples, set 2 (AID 623989); format: functional
[9] = target: Glycogen synthase kinase-3 alpha (Homo sapiens, UniProt P49840); experiment: human GSK3 alpha kinase inhibition, dose response, selectivity assay for GSK3beta inhibitor project, biochemical, microfluidics, dry powder samples, set 2 (AID 623978); format: functional
[10] = target: T6, DNA dC->dU-editing enzyme APOBEC-3A (Homo sapiens, UniProt P31941); experiment: SAR analysis of small molecule inhibitors of APOBEC3A DNA Deaminase via a fluorescence-based single-stranded DNA deaminase assay - Set 2.; format: functional; settings: read-out: IC50_Mean
[11] = target: T7, DNA dC->dU-editing enzyme APOBEC-3G (Homo sapiens, UniProt Q9HC16); experiment: SAR analysis of small molecule inhibitors of APOBEC3G DNA Deaminase via a fluorescence-based single-stranded DNA deaminase assay - Set 2.; format: functional; settings: read-out: IC50_Mean
[12] = target: T7, DNA dC->dU-editing enzyme APOBEC-3G; experiment: APOBEC3G deaminase inhibitors, SAR follow-up, biochemical, fluorescence, single-stranded DNA substrate (AID 602136); format: functional; settings: read-out: IC50_Mean
[13] = target: T6, DNA dC->dU-editing enzyme APOBEC-3A; experiment: SAR analysis of small molecule inhibitors of APOBEC3A DNA Deaminase via a fluorescence-based single-stranded DNA deaminase assay.; format: functional; settings: read-out: IC50_Mean
[14] = target: T8, Melanin-concentrating hormone receptor 1 (Homo sapiens, UniProt Q99705); experiment: Late-stage fluorescence-based counterscreen for antagonists of the G-protein coupled receptor 7 (GPR7): cell-based dose response assay to identify antagonists of the melanin-concentrating hormone receptor 1 (MCHR1) Set 6.; format: functional
[15] = target: T9, Neuropeptides B/W receptor type 1 (Homo sapiens, UniProt P48145); experiment: GPR7 antagonist potency, late-stage follow-up, cell-based, fluorescence, dose response, set 6 (AID 588583); format: functional
T9 sequence (P48145 whole entry): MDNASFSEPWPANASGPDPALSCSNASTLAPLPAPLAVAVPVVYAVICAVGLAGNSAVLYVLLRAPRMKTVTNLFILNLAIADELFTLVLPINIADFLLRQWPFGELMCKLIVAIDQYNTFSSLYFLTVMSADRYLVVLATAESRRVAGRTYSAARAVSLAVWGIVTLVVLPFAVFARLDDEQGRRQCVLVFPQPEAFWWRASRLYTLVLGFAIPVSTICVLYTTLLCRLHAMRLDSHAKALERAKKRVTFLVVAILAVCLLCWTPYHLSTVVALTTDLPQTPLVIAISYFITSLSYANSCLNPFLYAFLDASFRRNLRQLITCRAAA

[16] = target: T9, Neuropeptides B/W receptor type 1; experiment: GPR7 antagonist potency, late-stage follow-up, cell-based, fluorescence, dose response, set 5 (AID 588566); format: functional
[17] = target: T8, Melanin-concentrating hormone receptor 1; experiment: Late-stage fluorescence-based counterscreen for antagonists of the G-protein coupled receptor 7 (GPR7): cell-based dose response assay to identify antagonists of the melanin-concentrating hormone receptor 1 (MCHR1) Set 5.; format: functional

T6 sequence (P31941 whole entry): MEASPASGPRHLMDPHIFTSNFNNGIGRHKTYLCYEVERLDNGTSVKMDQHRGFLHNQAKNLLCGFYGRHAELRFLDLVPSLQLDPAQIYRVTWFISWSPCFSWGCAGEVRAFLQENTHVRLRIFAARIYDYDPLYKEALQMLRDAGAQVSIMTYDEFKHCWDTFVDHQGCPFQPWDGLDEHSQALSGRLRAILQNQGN
T7 sequence (Q9HC16 whole entry): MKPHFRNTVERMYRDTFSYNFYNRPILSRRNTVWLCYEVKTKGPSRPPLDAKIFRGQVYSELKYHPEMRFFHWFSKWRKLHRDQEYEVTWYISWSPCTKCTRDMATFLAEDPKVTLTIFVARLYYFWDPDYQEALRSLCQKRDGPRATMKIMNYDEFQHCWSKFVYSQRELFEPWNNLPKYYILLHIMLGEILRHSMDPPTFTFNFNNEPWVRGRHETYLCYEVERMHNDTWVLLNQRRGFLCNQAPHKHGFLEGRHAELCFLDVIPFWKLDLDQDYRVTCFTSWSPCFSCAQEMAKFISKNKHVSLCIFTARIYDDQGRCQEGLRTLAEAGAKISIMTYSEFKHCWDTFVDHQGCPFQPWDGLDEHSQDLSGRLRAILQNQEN
T8 sequence (Q99705 whole entry): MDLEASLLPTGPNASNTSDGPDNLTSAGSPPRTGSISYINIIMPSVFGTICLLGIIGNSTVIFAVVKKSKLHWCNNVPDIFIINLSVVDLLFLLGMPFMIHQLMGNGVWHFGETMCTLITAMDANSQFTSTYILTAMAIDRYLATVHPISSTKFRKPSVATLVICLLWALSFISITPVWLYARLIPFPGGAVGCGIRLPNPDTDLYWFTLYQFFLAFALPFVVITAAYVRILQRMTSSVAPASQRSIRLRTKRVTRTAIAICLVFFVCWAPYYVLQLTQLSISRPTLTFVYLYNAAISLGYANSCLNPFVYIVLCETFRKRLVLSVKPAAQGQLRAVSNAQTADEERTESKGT
Chain of Cystic fibrosis transmembrane conductance regulator/Golgi-associated PDZ and coiled-coil motif-containing protein (P13569 whole entry, other chains not shown): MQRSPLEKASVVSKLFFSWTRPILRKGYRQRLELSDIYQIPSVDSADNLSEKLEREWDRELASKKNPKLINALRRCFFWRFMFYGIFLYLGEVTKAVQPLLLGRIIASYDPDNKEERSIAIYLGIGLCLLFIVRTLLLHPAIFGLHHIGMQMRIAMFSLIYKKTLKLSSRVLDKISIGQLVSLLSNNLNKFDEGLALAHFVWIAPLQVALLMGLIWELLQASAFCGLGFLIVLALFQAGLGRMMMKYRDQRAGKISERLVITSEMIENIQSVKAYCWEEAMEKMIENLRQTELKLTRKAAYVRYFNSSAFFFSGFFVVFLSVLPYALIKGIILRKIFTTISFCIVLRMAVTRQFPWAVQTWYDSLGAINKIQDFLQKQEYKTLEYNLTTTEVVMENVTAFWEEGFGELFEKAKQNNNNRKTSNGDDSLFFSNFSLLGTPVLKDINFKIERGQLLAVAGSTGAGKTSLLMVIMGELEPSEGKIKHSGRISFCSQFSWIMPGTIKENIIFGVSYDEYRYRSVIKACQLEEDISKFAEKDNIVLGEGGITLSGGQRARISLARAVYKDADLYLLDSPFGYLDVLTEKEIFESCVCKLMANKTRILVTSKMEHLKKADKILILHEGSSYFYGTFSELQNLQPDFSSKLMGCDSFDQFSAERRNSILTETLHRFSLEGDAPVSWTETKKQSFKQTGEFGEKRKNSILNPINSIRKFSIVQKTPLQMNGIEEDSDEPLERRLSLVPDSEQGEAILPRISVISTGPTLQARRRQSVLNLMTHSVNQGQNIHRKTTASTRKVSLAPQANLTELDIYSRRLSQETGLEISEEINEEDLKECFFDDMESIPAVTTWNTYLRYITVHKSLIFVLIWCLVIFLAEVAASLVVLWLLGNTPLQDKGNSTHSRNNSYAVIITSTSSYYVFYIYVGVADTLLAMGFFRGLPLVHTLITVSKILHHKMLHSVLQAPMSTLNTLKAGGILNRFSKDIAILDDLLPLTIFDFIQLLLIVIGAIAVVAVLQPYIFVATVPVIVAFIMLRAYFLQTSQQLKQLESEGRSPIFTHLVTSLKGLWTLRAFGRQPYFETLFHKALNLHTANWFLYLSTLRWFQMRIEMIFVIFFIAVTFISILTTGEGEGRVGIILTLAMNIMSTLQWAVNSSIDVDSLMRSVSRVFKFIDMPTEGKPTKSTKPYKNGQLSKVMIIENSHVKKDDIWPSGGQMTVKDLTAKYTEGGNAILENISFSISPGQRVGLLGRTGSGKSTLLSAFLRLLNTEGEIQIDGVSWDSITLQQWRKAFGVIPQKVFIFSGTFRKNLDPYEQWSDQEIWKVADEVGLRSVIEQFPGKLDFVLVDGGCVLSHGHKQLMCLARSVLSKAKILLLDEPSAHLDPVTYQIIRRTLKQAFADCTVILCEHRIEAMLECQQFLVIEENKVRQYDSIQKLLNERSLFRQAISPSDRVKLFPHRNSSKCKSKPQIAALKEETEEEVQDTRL
Chain of Glycogen synthase kinase-3 alpha (P49840 whole entry): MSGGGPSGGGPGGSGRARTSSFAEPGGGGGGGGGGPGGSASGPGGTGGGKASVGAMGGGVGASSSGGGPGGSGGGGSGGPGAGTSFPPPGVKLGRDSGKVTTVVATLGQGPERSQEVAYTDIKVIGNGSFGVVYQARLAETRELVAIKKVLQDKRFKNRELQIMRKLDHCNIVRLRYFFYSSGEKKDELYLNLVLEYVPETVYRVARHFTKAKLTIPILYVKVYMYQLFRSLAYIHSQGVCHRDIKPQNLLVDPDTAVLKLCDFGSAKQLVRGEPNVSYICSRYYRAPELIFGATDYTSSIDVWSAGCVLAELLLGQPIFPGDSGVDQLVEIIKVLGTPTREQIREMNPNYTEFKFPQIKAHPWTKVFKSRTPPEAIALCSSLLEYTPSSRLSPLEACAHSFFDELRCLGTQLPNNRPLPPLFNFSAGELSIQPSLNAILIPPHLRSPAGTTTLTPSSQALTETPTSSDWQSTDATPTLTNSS
Chain of Glycogen synthase kinase-3 beta (P49841 whole entry): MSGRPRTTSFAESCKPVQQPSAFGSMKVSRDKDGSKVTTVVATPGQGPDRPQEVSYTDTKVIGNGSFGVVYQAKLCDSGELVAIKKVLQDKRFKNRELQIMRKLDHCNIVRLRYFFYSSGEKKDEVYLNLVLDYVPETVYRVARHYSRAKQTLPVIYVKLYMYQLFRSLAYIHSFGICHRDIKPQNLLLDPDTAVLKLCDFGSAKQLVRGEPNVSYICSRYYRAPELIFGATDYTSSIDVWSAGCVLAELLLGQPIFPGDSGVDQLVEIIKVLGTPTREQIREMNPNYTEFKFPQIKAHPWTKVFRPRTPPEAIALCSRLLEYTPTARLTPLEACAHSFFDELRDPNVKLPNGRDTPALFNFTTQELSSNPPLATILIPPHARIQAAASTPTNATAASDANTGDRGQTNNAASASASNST

## CC(=O)NC1C(=O)N(CCN2CCOCC2)c2ccc(Br)cc21 (stereo not given)
[1]
  AC50: 24.8 µM (active)
Hexokinase HKDC1 [2]
  IC50: 5.24 µM (active)
[3]
  AC50: 14.3 µM (active)
Protein RecA
  EC50: 11 µM (active)
Hexokinase HKDC1 [4]
  IC50: 6.88 µM (active)
Hexokinase HKDC1 [5]
  IC50: 8.67 µM (active)
[6]
  AC50: 82.6 µM (active)
Caspase-6
  AC50: 12.6 µM (active)
[7]
  IC50: 16.3 µM (inactive)

## Fc1cccc(Nc2nc(-c3ccncc3)nc3ccccc23)c1
[8]
  AC50: 0.894 µM (active)
[9]
  AC50: 29.7 µM (active)
cells
  IC50: 44.3 µM (active)

## CC1(C)Oc2ccc3ccc(=O)oc3c2C(C=NCCO)=C1O
[10]
  IC50: 50.4 µM (inactive)
[11]
  IC50: 2.34 µM (active)
[12]
  IC50: 12.3 µM (inactive)
[13]
  IC50: 28.8 µM (inactive)

## N#CC(c1cccc(F)c1F)c1c(Cl)cnn(Cc2cccc3ccccc23)c1=O (stereo not given)
[14]
  IC50: 0.542 µM (active)
[15]
  IC50: 0.542 µM (active)

## COc1ccc(Oc2c(Cl)cnn(Cc3ccccc3OCc3ccccc3)c2=O)cc1
[16]
  IC50: 1.21 µM (active)
[17]
  IC50: 16.5 µM (inactive)
